Measurements published in patent US7442394B2, “Combined effects of nutrients on proliferation of stem cells” (University of South Florida, priority 2005, dated 2008).

How the values were obtained:
[1] = test system: CD133+ (progenitor cells) collected from peripheral blood; experiment: MTT cell proliferation assay on CD133+ cells; type: cell-based, human; conditions: same conditions as CD34+ cells
Protocol: (§1) Cell cultures and MTT Assay. For cell proliferation analysis, human bone marrow cells, human CD34+cells or CD133 cells (BioWhittaker, Inc.) were cultured in 96 well plates (5×10^4/well) containing 100 μL of complete medium (RPMI 1640 medium supplemented with 5% fetal calf serum). These cells were treated for 72 hours with various extracts at a wide range of doses (8 ng/mL to 500 ng/mL) or molecular compounds (0.3125 μM to 20 μM). Five hours before the end of the treatment, 20 μL of MTT solution (MTT kit, Sigma) was added to each well. These plates were then incubated in a CO2 incubator at 37° C. for 5 hours and the cultured media removed with needle and syringe. 200 μL of DMSO was added to each well with pipetting up and down to dissolve crystals. These plates were put back into the 37° C. incubator for 5 minutes, transferred to plate reader and measured absorbance at 550 nm. Data were represented as relative percentage mean proliferation, defined as O.D. reading number of each treated cells normalized to control cells (in the absence of treatment).
Promotion of CD133+ Cell Proliferation and Synergistic Properties of Extracts and Compounds. Some of the compounds and combinations with the greatest activity on proliferation of the bone marrow derived CD34+ cells were then used to treat CD133+ (progenitor cells) collected from peripheral blood and cultured under the same conditions as above.

[2] = cited from earlier work
[3] = test system: Human bone marrow-derived CD34+ cells; experiment: MTT cell proliferation assay on CD34+ cells; type: cell-based; conditions: highest doses (BB 500 ng/mL, D3 5 μM, CH 20 μM, Ca 20 μM, GT 500 ng/mL), 72 hours
Protocol: Human CD133+ cells were cultured for 23 days in the presence or absence of green tea (50 μg/ml).
as §1

[4] = Human pK study of carnosine after beef consumption (Park et al. 2005); type: in vivo, humans
Protocol: In one example, carnosine is added to a supplement in a dose of 100 mg. A recent pK study in humans [Park Y J, Volpe S L, Decker, E A (2005) Quantitation of Carnosine in Humans Plasma after Dietary Consumption of Beef. J. Agric. […] With a Mw of 266 and assuming 5 liters of blood in a human, 250 mg carnosine produces a blood conc of […]. Assuming linear pK, 100 mg should produce a human blood concentration of […]. Doses tested ranged from 1-20 μM, effect was still increasing at 20 μM. Thus, a dose as high as 620 may be helpful and still be within normal ranges for human consumption. A preferred effective range is about 10 mg to 100 mg of carnosine based on extrapolation from results obtained.

[5] = test system: human bone marrow cells; experiment: MTT cell proliferation assay on human bone marrow cells; type: cell-based; conditions: for increase in proliferation, percent over control: 20 μM; for proliferative activity on human bone marrow cells in culture (screen): screened individually
[6] = cited from earlier work; remark: listed apart in the source
[7] = Vitamin D3 blood concentration in humans; type: in vivo; conditions: dose of 50 mcg
Protocol: In one example, Vitamin D3 is used as 2000 IU's, which is equivalent to 50 μg. In humans, daily administration of 4000 IUs (100 mcg) results in a blood concentration of 100 nmol/L. There is no official RDA for vitamin D3 [R. Vieth, D. Fraser, Vitamin D insufficiency: no recommended dietary allowance exists for this nutrient, CMAJ 166 (2002) 1541-1542](4). According to a conservative report of the Food and Nutrition Board [R. Vieth (2004) Why the optimal requirement for Vitamin D3 is probably much higher than what is officially recommended for adults. Journal of Steroid Biochemistry & Molecular Biology 89-90 (2004) 575-579], the safety limit (no adverse effect level, NOAEL) of vitamin D3 intake in humans is 60 mcg (or 2400 IU) per day [Standing Committee on the Scientific Evaluation of Dietary Reference Intakes. Dietary Reference Intakes: Calcium, Phosphorus, Magnesium, Vitamin D, and Fluoride. National Academy Press, 1997]. After applying a margin of safety, the recommended upper limit is 50 mcg (2000 IUs) per day for intake by the general public [I. Munro, Derivation of tolerable upper intake levels of nutrients, Am. J. Clin. Nutr. 74 (2001) 865-867]. Clinical trials show no benefit from oral doses 20 mcg (800 IUs) or less [R. Vieth (2004) Why the optimal requirement for Vitamin D3 is probably much higher than what is officially recommended for adults. […]

[8] = daily administration of 4000 IUs (100 mcg); cited from earlier work
[9] = test system: CD117/SCA-1 positive cells (hematopoietic stem cells); experiment: Flow cytometry of CD117/SCA-1 positive cells after 6 days of treatment; type: in vivo, mice; conditions: day 7
Protocol: (§2) On day 7 cells were isolated and prepared for flow cytometry. The percentage of CD117/SCA-1 positive cells was analyzed. This represents a hematopoietic stem cells. […] On day 7 cells were isolated and plated in the colony forming assay (see specific methods) for 5 days. ATP was detected by luciferase assay and luminescence was converted to ATP units with use of a standard curve. […] Although a statistically small sample, the effects show a cytokine like effect to reduce progenitors in the bone marrow.
(§3) In vivo studies. […] To date we have treated 3 mice with (Blueberry Extract: 3 mg/kg/day; Carnosine: 10 mg/kg/day; Vitamin D3:1 mg/kg/day; green tea extract: 3 mg/kg/day) or water by gavage, in addition 3 mice have been treated with G-CSF […] i.p. Initial studies were done at 6 days of treatment as this is an optimal time for G-CSF to show mobilization of progenitors into the peripheral blood. Bone marrow, spleen and peripheral blood mononuclear cells were examined by flow cytometry with SCA-1 and CD117, the presence of both markers is indicative of multipotent hematopoietic stem cells. […] The three fractions were also assessed in the HALO™ colony forming assay. […] This effect is consistent with the literature and thus increases our confidence in this version of the CFU-C assay.

[10] = test system: colony forming units (CFU-C's); experiment: HALO colony forming assay of bone marrow, spleen and mononuclear cells; type: in vivo, mice; conditions: 6 days of treatment
Protocol: as §2, §3

## NCCC(=O)N[C@@H](Cc1cnc[nH]1)C(=O)O [Carnosine]
[1]
  increase in proliferation, percent over control (FIG. 2C): 16.9±3.3%
[2]; 250 mg carnosine (two beef patties) ingested
  plasma conc.: 33000 ng/mL
[2]; 250 mg carnosine ingested
  time of plasma peak: 3 h
  time of return to baseline: 5 h
[3]
  increase in proliferation, percent over control (FIG. 2B): 11.05±2.1%
[4]; 100 mg, assuming linear pK
  human blood concentration: 248 µM
[4]; human, whole blood, oral, 250 mg carnosine, Mw of 266, assuming 5 liters of blood, read-out: blood conc
  concentration at 3 h: 620 µM
[5]; 72 hours
  increase in proliferation, percent over control: 26.6±6.0%
[5]
  proliferative activity on human bone marrow cells in culture (screen): increase cell proliferation

## Catechin
[3]
  increase in proliferation, percent over control (FIG. 2B): 24.8±5.0%
[5]; 72 hours
  increase in proliferation, percent over control: 34.8±5.2%
[5]
  proliferative activity on human bone marrow cells in culture (screen): increase cell proliferation

## O=C(O[C@@H]1Cc2c(O)cc(O)cc2O[C@@H]1c1cc(O)c(O)c(O)c1)c1cc(O)c(O)c(O)c1 [EGCG]
[5]
  proliferative activity on human bone marrow cells in culture (screen): did not show high activity

## C=C1CC[C@H](O)C/C1=C/C=C1\CCC[C@]2(C)[C@@H]([C@H](C)CCCC(C)(C)O)CC[C@@H]12 [25-Hydroxycholecalciferol]
[1]
  increase in proliferation, percent over control (FIG. 2C): 7.6±1.39%
[6]; after applying a margin of safety
  recommended upper limit for intake by the general public: 50 mcg per day
[6]; human oral doses of 1000 IUs to 4000 IUs (100 mcg/day)
  safety in clinical trials: completely safe
[6]; humans
  safety limit (no adverse effect level, NOAEL) of intake: 60 mcg per day
[3]
  increase in proliferation, percent over control (FIG. 2B): 6.9±2.6%
[7]
  plasma concentration: 0.05 µM
[5]; 5 μM, 72 hours
  proliferation, percent over control: 14.8±3.3%
[5]
  proliferative activity on human bone marrow cells in culture (screen): increase cell proliferation
[8]
  blood concentration: 0.1 µM

## hGM-CSF: positive control, human granulocyte colony-stimulating factor
[1]
  increase in proliferation, percent over control (FIG. 2C): 21.11±2.9%
[3]
  increase in proliferation, percent over control (FIG. 2B): 48.3±7.4%
[5]; combination experiment, BB 500 ng/mL, D3 5 μM, CH 20 μM, Ca 20 μM, GT 500 ng/mL, 72 hours
  increase in proliferation, percent over control (FIG. 2A): 48.3±7.4%
[5]; highest dose of 100 ng/ml, 72 hours
  proliferation, percent over control: 44.5±8.1%

B1: G-CSF: granulocyte-colony-stimulating factor, potent cytokine given i.p. to mice (protein, UniProt P09919 31-207, looked up)
Granulocyte …: TPLGPASSLPQSFLLKCLEQVRKIQGDGAALQEKLVSECATYKLCHPEELVLLGHSLGIPWAPLSSCPSQALQLAGCLSQLHSGLFLYQGLLQALEGISPELGPTLDTLQLDVADFATTIWQQMEELGMAPALQPTQGAMPAFASAFQRRAGGVLVASHLQSFLEVSYRVLRHLAQP
[9]; BM population
  CD117/SCA-1 positive cells: decrease
[9]; all 3 cell fractions (BM, spleen, MNC)
  CD117/SCA-1 positive cells: small increase
[9]; spleen and MNC populations
  CD117/SCA-1 positive cells: trend for an increase
[10]; bone marrow fraction
  colony forming units (CFU-C's): decrease
[10]; bone marrow fraction, listed as GCSF
  colony forming units (CFU-C's): reduce
[10]; spleen and MNC fractions
  colony forming units (CFU-C's): increase
